Key:
Test in all cases: pIC50, kinobeads binding competition
[1] = biological target: CAMK1D (UniProt Q8IU85)
How it was run: (§1)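 Either living Jurkat cells (60 min at 37 °C, then lysis) or lysates (60 min at 4 °C) were treated with nine compound concentrations from a top of 30 μM, in 1:4 steps for cells and 1:5 steps for lysates. The lysates were from Jurkat cells or a 1:1:1:1 mix of HEK293, K-562, HepG2 and placenta. Kinobeads-bound proteins were digested and quantified by TMT10 LC-MS/MS. pIC50 was calculated by logistic dose-response fitting (R drc package) of fold changes relative to vehicle, in biological duplicates.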

[2] = biological target: T1, ITK (UniProt Q08881)
T1 sequence (whole entry): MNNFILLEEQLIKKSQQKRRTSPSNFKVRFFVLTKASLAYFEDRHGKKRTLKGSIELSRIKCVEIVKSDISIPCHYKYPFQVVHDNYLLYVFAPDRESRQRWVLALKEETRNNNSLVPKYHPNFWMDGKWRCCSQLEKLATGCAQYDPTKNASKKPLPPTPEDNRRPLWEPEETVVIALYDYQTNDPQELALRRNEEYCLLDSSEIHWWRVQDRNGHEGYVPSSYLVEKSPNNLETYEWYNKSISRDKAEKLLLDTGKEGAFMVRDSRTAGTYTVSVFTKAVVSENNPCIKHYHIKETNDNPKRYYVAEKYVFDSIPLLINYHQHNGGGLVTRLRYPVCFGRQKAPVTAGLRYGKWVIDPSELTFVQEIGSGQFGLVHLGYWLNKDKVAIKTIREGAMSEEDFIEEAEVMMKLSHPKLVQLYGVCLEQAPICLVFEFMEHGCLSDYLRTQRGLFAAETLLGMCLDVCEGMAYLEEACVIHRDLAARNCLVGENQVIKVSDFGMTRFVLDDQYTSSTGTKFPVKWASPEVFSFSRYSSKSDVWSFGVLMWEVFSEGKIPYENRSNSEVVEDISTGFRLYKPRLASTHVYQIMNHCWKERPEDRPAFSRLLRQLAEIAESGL
How it was run: as §1

[3] = biological target: T2, ZAP70 (UniProt P43403)
T2 sequence (whole entry): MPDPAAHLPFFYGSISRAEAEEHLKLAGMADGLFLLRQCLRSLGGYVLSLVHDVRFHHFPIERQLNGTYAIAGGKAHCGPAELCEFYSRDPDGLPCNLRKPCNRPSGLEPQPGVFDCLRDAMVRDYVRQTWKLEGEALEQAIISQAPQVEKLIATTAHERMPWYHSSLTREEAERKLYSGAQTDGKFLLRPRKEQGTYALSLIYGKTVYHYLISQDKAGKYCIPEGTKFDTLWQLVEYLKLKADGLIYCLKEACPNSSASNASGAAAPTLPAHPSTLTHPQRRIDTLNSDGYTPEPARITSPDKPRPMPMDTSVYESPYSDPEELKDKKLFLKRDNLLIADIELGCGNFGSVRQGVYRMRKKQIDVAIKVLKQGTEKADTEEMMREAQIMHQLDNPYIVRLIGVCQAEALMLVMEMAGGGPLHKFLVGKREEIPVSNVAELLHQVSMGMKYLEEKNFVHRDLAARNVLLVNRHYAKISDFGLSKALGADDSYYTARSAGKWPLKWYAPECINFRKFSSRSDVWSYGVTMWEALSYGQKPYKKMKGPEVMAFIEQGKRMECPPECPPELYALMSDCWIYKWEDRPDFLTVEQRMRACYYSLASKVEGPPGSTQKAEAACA
How it was run: as §1

[4] = biological target: T3, BRSK1 (UniProt Q8TDC3)
T3 sequence (whole entry): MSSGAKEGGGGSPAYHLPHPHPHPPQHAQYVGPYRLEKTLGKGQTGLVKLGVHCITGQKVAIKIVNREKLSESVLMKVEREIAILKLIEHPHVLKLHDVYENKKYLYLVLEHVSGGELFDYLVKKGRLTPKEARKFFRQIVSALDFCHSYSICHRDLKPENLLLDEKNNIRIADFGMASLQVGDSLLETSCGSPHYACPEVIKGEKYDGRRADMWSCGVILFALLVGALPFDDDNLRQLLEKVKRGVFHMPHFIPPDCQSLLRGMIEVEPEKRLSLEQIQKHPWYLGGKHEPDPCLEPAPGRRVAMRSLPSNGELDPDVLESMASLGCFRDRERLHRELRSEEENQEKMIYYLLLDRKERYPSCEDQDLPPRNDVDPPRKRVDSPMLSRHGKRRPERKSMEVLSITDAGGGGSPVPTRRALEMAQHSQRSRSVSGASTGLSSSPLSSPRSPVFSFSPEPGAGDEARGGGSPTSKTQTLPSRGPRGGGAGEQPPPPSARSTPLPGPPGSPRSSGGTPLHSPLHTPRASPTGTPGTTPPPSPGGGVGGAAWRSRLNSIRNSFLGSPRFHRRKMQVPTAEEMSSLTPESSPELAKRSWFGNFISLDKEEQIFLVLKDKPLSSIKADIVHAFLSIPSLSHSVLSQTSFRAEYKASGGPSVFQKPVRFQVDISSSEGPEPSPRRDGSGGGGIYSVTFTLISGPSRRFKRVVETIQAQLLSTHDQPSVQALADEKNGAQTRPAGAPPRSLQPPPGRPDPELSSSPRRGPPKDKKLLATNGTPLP
How it was run: as §1

[5] = biological target: T4, RIOK1 (UniProt Q9BRS2)
T4 sequence (whole entry): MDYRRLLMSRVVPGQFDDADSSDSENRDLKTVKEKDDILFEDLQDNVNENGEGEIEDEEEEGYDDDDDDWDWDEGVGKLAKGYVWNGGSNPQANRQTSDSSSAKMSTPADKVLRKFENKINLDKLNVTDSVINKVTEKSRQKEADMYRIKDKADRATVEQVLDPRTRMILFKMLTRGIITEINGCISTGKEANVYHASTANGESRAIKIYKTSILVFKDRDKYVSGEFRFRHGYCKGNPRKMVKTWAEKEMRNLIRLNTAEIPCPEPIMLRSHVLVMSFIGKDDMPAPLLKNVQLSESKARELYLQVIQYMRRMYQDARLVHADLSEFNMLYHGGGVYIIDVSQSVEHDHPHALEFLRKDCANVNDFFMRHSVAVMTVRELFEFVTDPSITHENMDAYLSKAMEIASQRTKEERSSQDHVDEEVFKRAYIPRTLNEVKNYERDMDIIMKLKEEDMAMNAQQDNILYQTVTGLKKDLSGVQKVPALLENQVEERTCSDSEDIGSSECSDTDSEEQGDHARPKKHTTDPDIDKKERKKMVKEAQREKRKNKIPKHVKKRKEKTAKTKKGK
How it was run: as §1

[6] = biological target: UniProt O00506
Chain of UniProt O00506 (O00506 whole entry, looked up): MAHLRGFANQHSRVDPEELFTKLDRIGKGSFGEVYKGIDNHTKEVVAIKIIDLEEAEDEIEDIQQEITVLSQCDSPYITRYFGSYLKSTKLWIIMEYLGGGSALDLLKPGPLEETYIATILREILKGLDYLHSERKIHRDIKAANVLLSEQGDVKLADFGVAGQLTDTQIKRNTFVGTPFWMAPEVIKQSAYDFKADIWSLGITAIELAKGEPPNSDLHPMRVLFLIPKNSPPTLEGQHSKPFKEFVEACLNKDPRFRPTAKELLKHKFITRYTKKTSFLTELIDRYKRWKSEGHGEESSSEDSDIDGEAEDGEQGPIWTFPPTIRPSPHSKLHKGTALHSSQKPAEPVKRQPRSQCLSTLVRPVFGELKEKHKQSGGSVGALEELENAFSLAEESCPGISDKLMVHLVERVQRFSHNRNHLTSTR
How it was run: as §1

[7] = biological target: PIK3R4 (UniProt Q99570); details: cell material: Jurkat cells
Chain of PIK3R4 (Q99570 whole entry): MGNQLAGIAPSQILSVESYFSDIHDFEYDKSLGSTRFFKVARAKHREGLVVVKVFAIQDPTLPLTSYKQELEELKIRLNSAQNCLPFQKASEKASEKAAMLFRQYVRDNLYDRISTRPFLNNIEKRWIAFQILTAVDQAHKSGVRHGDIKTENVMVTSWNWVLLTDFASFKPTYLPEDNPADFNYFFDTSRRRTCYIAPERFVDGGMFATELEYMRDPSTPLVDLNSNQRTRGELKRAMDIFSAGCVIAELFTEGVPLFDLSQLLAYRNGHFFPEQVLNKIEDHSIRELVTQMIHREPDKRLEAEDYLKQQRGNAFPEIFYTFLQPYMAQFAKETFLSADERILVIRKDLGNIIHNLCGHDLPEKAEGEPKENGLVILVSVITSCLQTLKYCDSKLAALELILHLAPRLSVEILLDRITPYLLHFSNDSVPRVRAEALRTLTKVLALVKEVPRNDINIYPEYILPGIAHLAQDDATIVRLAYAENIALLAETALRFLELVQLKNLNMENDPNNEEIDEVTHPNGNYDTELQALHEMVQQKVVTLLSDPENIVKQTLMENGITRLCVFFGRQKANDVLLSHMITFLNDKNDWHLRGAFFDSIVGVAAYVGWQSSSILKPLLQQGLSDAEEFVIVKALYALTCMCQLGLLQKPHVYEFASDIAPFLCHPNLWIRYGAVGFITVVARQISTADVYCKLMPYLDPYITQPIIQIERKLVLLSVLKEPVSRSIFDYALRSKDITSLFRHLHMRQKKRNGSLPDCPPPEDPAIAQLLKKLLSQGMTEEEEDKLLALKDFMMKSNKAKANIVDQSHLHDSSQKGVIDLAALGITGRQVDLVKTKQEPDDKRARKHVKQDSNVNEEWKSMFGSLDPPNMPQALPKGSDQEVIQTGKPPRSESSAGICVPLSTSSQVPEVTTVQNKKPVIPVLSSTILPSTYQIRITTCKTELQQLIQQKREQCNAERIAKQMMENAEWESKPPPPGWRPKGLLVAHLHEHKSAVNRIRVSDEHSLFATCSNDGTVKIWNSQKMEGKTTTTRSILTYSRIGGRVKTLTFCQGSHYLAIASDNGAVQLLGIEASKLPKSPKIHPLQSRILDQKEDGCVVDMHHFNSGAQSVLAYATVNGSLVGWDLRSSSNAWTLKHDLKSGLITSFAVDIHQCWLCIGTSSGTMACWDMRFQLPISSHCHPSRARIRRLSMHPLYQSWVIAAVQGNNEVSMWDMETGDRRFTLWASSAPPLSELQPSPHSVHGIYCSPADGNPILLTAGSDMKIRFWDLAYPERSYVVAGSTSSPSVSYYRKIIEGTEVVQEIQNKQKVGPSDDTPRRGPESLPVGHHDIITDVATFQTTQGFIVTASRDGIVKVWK
How it was run: as §1

Chain of CAMK1D (Q8IU85 whole entry, looked up): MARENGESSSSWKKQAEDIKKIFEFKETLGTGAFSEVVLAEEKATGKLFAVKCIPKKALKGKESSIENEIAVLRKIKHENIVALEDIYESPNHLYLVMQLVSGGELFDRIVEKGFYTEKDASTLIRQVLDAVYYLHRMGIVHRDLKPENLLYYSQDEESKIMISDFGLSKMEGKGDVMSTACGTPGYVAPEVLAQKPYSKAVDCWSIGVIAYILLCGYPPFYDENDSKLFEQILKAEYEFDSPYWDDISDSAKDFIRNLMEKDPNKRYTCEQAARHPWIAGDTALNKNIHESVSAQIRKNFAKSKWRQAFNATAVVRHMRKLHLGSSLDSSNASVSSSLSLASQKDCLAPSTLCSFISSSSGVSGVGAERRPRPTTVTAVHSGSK

Row | SMILES | pIC50 ([1]; cell material: Jurkat cells) | pIC50 ([1]; cell material: Jurkat lysate) | pIC50 ([2]; cell material: Jurkat cells) | pIC50 ([2]; cell material: Jurkat lysate) | pIC50 ([3]; cell material: Jurkat cells) | pIC50 ([3]; cell material: Jurkat lysate) | pIC50 ([4]; cell material: Jurkat cells) | pIC50 ([4]; cell material: Jurkat lysate) | pIC50 ([5]; cell material: Jurkat cells) | pIC50 ([5]; cell material: Jurkat lysate) | pIC50 ([6]; cell material: Jurkat lysate) | pIC50 [7] | pIC50 ([6]; cell material: Lysate mix)
1 | C#CCNC(=O)c1cc(Nc2cc(C3CC3)[nH]n2)nc(N2CCN(Cc3ccc(S(=O)(=O)F)cc3)CC2)n1 | 5.94 | < 4.52 | 6.78 | 5.4 | 6.43 | < 4.52 | 6.05 | < 4.52 | < 4.52 | < 4.52 | 6.59 | 4.69 | –
2 | O=C(NCCNC(=O)c1cc(Nc2cc(C3CC3)[nH]n2)nc(N2CCN(Cc3ccc(S(=O)(=O)F)cc3)CC2)n1)OC1CC/C=C/CCC1 (stereo not drawn) | 5.82 | – | 6.7 | < 4.52 | 6.09 | < 4.52 | 6.6 | < 4.52 | < 4.52 | < 4.52 | – | < 4.52 | < 4.52

From the supplement of paper PMC12076712
